Reference: PMC8945123 (ACS Omega, 2022)
“And” between values parts separate entries of the source, which are not always exact repeats. Identical values can stand only once. “Also recorded” adds a separate entry of the source. Like-named read-outs stand apart in the source and are kept apart here.

Key:
hMAO-B = target: T1, hMAO-B (Homo sapiens, UniProt P27338); test: In vitro inhibition of recombinant human MAO-B, fluorometric; type: biochemical
T1 sequence (P27338 1-520): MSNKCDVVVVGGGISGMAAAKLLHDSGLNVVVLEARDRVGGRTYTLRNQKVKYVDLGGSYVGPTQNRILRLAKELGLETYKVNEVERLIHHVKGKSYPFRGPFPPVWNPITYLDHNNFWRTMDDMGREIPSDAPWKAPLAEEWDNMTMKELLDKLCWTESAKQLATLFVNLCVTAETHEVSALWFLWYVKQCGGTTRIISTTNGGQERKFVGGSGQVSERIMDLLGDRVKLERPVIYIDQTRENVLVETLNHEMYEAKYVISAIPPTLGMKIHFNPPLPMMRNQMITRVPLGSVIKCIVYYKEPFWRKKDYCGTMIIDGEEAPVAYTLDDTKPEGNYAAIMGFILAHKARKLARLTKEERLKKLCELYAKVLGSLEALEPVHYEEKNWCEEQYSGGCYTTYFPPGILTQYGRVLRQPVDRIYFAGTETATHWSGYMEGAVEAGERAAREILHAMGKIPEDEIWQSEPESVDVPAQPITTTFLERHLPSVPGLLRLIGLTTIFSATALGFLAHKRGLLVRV

eqBChE = eqBChE (Equus caballus, UniProt P81908); test: In vitro eqBChE inhibition, Ellman's method; type: biochemical
Chain of eqBChE (P81908 whole entry): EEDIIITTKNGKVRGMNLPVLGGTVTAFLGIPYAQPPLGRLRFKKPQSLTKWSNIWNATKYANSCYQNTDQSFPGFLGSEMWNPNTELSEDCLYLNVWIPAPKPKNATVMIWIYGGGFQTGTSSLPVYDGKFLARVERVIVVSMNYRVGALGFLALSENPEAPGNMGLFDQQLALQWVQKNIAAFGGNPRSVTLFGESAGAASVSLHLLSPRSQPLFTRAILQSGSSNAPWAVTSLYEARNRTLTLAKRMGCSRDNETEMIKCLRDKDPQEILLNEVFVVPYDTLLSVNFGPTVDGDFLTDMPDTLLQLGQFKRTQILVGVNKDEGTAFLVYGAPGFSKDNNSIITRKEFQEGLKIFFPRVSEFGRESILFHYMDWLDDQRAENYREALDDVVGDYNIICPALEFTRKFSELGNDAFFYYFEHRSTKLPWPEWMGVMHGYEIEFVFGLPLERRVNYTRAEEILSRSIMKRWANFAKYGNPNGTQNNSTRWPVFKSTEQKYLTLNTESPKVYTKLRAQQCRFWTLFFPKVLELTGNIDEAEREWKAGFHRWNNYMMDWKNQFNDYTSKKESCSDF

eeAChE = eeAChE (Electrophorus electricus, UniProt O42275); test: In vitro eeAChE inhibition, Ellman's method; type: biochemical; conditions: for IC50: mean ± SEM (n = 3)
Chain of eeAChE (O42275 24-633): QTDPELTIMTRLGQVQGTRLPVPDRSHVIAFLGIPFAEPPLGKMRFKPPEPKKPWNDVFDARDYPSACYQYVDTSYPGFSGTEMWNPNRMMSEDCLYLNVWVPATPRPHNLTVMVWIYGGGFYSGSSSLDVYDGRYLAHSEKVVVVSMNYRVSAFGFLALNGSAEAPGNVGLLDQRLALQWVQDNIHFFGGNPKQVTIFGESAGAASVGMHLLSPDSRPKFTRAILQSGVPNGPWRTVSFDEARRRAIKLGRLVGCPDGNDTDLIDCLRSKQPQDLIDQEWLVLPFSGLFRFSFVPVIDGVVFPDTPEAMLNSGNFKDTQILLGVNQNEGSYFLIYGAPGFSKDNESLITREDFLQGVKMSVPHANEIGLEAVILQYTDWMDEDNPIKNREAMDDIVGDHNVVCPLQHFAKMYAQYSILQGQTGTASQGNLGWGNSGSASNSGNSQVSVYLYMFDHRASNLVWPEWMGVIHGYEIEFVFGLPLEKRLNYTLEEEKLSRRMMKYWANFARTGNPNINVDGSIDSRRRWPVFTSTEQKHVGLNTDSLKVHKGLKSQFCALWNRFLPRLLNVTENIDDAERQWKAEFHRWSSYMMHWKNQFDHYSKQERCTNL

hMAO-A = target: T2, hMAO-A (Homo sapiens, UniProt P21397); test: In vitro inhibition of recombinant human MAO-A, fluorometric; type: biochemical; conditions: for IC50 (μM) ± SEM hMAO-A: mean ± SEM (n = 3)
T2 sequence (P21397 1-527): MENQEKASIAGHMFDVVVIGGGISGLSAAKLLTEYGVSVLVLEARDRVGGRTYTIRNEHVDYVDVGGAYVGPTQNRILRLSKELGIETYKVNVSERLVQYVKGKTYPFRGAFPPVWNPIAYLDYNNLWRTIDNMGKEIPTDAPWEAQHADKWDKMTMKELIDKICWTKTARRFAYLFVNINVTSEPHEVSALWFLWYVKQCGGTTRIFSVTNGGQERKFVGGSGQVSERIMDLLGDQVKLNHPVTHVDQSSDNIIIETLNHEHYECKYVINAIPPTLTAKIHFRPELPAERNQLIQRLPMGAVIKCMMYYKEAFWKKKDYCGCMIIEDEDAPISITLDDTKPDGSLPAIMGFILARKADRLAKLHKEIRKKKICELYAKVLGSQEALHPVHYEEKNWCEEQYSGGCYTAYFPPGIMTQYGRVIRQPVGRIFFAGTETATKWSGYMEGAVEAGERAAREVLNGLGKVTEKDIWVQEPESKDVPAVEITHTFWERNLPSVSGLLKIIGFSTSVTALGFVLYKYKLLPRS

[1] = Neurotoxicity MTT assay on neuroblastoma SH-SY5Y cells; type: cell-based; conditions: human
[2] = PAMPA-BBB permeation assay; conditions: prediction of BBB penetration from Pe
animals = test: Acute oral toxicity in animals; type: in vivo; conditions: doses from 50 to 2000 mg/kg body weight, eight animals per group
acetylcholinesterase = acetylcholinesterase (Electrophorus electricus, UniProt O42275); test: Kinetic analysis of AChE inhibition; type: biochemical
Chain of acetylcholinesterase (O42275 24-633): as the sequence (O42275 24-633) above

Row | SMILES | IC50 (hMAO-B) [µM] | SI = selectivity index = IC50 of hMAO-A/IC50 of hMAO-B (hMAO-B) | IC50 (eqBChE) [µM] | SI = selectivity index = IC50 of eqBChE/IC50 of eeAChE (eeAChE) | IC50 (hMAO-A) [µM] | IC50 (eeAChE; IC50 (μM) ± SEM eeAChE) | prediction (PAMPA-BBB) (CNS+, CNS–) [2] | further results
1 | O=C1CC(c2ccccc2)CC2=C1C(c1c[nH]c3ccccc13)n1c(s/c(=C\c3c[nH]c4ccccc34)c1=O)=N2 (centres unmarked) [Compound 27] | 0.47 ± 0.01 | 19.9 | 13.7 ± 1.21 | 14.1 | 9.36 ± 1.01 |  |  | IC50 (eeAChE; read-out: IC50 (μM) ± SEM eeAChE): 0.97 ± 0.1 µM
2 | O=C1CCCC2=C1C(c1c[nH]c3ccccc13)n1c(s/c(=C\c3ccc(OCCNCCc4c[nH]c5ccccc45)cc3)c1=O)=N2 (centres unmarked) [Compound 34] | 0.28 ± 0.01 | 5.3 | 0.44 ± 0.01 | 3.7 | 1.5 ± 0.01 | 0.12 ± 0.01 µM |  | 
3 | COc1ccc(C2CC(=O)C3=C(C2)N=c2s/c(=C\c4ccc(OCCNCCc5c[nH]c6ccccc56)cc4)c(=O)n2C3c2c[nH]c3ccccc23)cc1 (centres unmarked) [Compound 37] | 0.14 ± 0.01 |  | 0.98 ± 0.11 | 14.2 |  | 0.07 µM and 0.069 µM | CNS+ (‘CNS+’ (prediction of high BBB permeation); Pe (10^–6 cm/s) > 4.39) | viability at 1 µM [1]: 96.1 ± 0.98%; viability at 10 µM [1]: 92.1 ± 1.09%; viability at 20 µM [1]: 90.33 ± 0.83%; viability at 40 µM [1]: 88.2 ± 1.55%; acute toxicity (survival, clinical signs) (animals): All animals were found alive; IC50 (μM) ± SEM hMAO-A (hMAO-A): not able to show MAO-A inhibition activity at tested concentration
4 | O=C1CCCC2=C1C(c1c[nH]c3ccccc13)n1c(s/c(=C\c3ccc(OCc4ccccc4)cc3)c1=O)=N2 (centres unmarked) [Compound 30] | 0.37 ± 0.01 | 1.3 | 8.97 ± 0.77 | 1.9 | 0.48 ± 0.03 | 4.67 ± 0.29 µM |  | acute toxicity (survival, clinical signs) (animals): All animals were found alive
5 | CC1(C)CC(=O)C2=C(C1)N=c1s/c(=C\c3ccc(OCc4ccccc4)cc3)c(=O)n1C2c1c[nH]c2ccccc12 (centres unmarked) [Compound 31] | 0.38 ± 0.01 | 1.6 | 13.9 ± 0.99 | 3.7 | 0.63 ± 0.04 | 3.71 ± 0.11 µM |  | 
6 | COc1ccc(C2CC(=O)C3=C(C2)N=c2s/c(=C\c4ccc(OCc5ccccc5)cc4)c(=O)n2C3c2c[nH]c3ccccc23)cc1 (centres unmarked) [Compound 33] | 0.67 ± 0.01 | 72.2 | 1.01 ± 0.06 | 1.3 | 48.4 ± 2.28 | 0.79 ± 0.09 µM |  | 
7 | CC(=O)[C@H]1CC[C@H]2[C@@H]3CCC4=CC(=O)CC[C@]4(C)[C@H]3CC[C@]12C [progesterone] |  |  |  |  |  |  | CNS+ (‘CNS+’ (prediction of high BBB permeation); Pe (10^–6 cm/s) > 4.39) | 
8 | O=C1CC(c2ccccc2)CC2=C1C(c1c[nH]c3ccccc13)n1c(s/c(=C\c3ccc(OCCNCCc4c[nH]c5ccccc45)cc3)c1=O)=N2 (centres unmarked) [Compound 36] | 0.1 ± 0.01 |  | 1.39 ± 0.06 | 17.2 |  | 0.081 ± 0.03 µM |  | IC50 (μM) ± SEM hMAO-A (hMAO-A): not able to show MAO-A inhibition activity at tested concentration
9 | CCn1cc(C(=O)O)c(=O)c2cc(F)c(N3CCNC(C)C3)c(F)c21 (centres unmarked) [lomefloxacin] |  |  |  |  |  |  | CNS- (“CNS-” (prediction of low BBB permeation); Pe (10^–6 cm/s) < 1.78) | 
10 | CC1(C)CC(=O)C2=C(C1)N=c1s/c(=C\c3c[nH]c4ccccc34)c(=O)n1C2c1c[nH]c2ccccc12 (centres unmarked) [Compound 26] | 0.24 ± 0.01 | 2.4 | 19.3 ± 1.14 | 3.1 | 0.57 ± 0.08 | 6.21 ± 0.16 µM |  | 
11 | Cc1nnc2n1-c1ccc(Cl)cc1C(c1ccccc1)=NC2 [alprazolam] |  |  |  |  |  |  | CNS+ (‘CNS+’ (prediction of high BBB permeation); Pe (10^–6 cm/s) > 4.39) | 
12 | NCCc1ccc(O)c(O)c1 [dopamine] |  |  |  |  |  |  | CNS- (“CNS-” (prediction of low BBB permeation); Pe (10^–6 cm/s) < 1.78) | 
13 | CC1(C)CC(=O)C2=C(C1)N=c1s/c(=C\c3ccc(OCCNCCc4c[nH]c5ccccc45)cc3)c(=O)n1C2c1c[nH]c2ccccc12 (centres unmarked) [Compound 35] | 0.33 ± 0.01 | 5.8 | 0.63 ± 0.07 | 15.0 | 1.93 ± 0.01 | 0.04 µM and 0.042 µM | CNS+ (‘CNS+’ (prediction of high BBB permeation); Pe (10^–6 cm/s) > 4.39) | viability at 1 µM [1]: 98.9 ± 1.23%; viability at 10 µM [1]: 95.2 ± 1.54%; viability at 20 µM [1]: 94.9 ± 1.01%; viability at 40 µM [1]: 91.6 ± 1.59%; acute toxicity (survival, clinical signs) (animals): All animals were found alive; Ki (acetylcholinesterase): 0.012 µM; type of inhibition (acetylcholinesterase; Lineweaver–Burke double reciprocal plot): mixed inhibition mode; also recorded: mixed-type inhibition
14 | COc1ccc(C2CC(=O)C3=C(C2)N=c2s/c(=C\c4c[nH]c5ccccc45)c(=O)n2C3c2c[nH]c3ccccc23)cc1 (centres unmarked) [Compound 28] | 0.31 ± 0.01 | 119.2 | 10.5 ± 1.09 | 11.8 | 36.9 ± 1.22 | 0.89 ± 0.1 µM |  | 
15 | O=C1CC(c2ccccc2)CC2=C1C(c1c[nH]c3ccccc13)n1c(s/c(=C\c3ccc(OCc4ccccc4)cc3)c1=O)=N2 (centres unmarked) [Compound 32] | 0.81 ± 0.01 | 13.9 | 1.7 ± 0.11 | 1.9 | 11.2 ± 1.3 | 0.86 ± 0.14 µM |  | 
